Laboratory results: patent publication US20250241901A1, “ACTIVATION OF MNRR1 / CHCHD2 AS A THERAPEUTIC TARGET FOR MITOCHONDRIA ASSOCIATED DISORDERS” (Wayne State University, priority 2024, published 2025)

How the values were obtained:
Assay type in all cases: cell-based, human
MNRR1 = MNRR1 immunofluorescence in MDAMB468 cells; conditions: MDAMB468, 10 μM, 24 h
Experimental: FIGS. 4A-4B: High throughput screen to identify MNRR1 activators. FIG. 4A: Campaign view representing compounds that activate MNRR1. Control levels are represented as a dotted line. Each compounds is shown as a small dot and nitazoxanide is highlighted as a large dot. FIG. 4B: MDAMB468 cells treated with Vehicle (DMSO) or nitazoxanide (10 μM) for 24 h were immunostained (MNRR1=orange, DAPI=blue) and imaged at 63λ using a confocal microscope. The scale bar represents 200 μm.
Immunofluorescence: Cells plated on glass cover slips were fixed with 3.7% formaldehyde (prepared in 1× PBS) at room temperature for 15 min, followed by permeabilization with 0.15% Triton X-100 (prepared in distilled water) for 2 min, and then blocked with 5% bovine serum albumin (BSA) (prepared in 1× PBS, 0.1% TWEEN-20 (PBST)) for 1 h at room temperature. Cells were washed with PBST then incubated for 1 h at room temperature in primary antibody solution containing Coralite® 594 conjugated mouse monoclonal anti-CHCHD2 IgG (1:100, Proteintech, Cat. No. CL594-66302) prepared in PBST. Cells were washed 3 times with PBST for 5 min each and mounted with Vectashield vibrance with DAPI (Cat. #H-1800-10, Vector Labs, Newark, CA). […] Corrected total fluorescence for each field to determine MNRR1 content was calculated using FIJI (National Institutes of Health).

[1] = system: MELAS patient fibroblasts; assay: Mitophagy and mitochondrial biogenesis markers in MELAS patient fibroblasts (immunoblot); conditions: fibroblasts from three MELAS patients, 10 μM, 48 h
Experimental: FIGS. 8A-8D: MNRR1 activation using tizoxanide enhances mitochondrial function, mitophagy, and protects from LPS-induced inflammation in MELAS patient fibroblasts. FIG. 8A: Equal amounts of lysates from MELAS patient fibroblast (MF 1, 2, or 3) lysates treated with vehicle (DMSO) or tizoxanide (10 μM) for 48 h were separated on an SDS-PAGE gel and probed for LC3B, PGC1a, MNRR1, MTCO2, TOM20, and phospho-ubiquitin (S65) levels. GAPDH orTubulin was probed as a loading control. FIG. 8B: Oxygen consumption measured from MELAS patient fibroblasts treated with vehicle (DMSO) or tizoxanide (10 μM) for 48 h (n=4 biological replicates, mean±SE). FIG. 8C: Mitochondrial ATP rate measured in MELAS patient fibroblasts treated with vehicle (DMSO) or tizoxanide (10 μM) for 48 h (n=4 biological replicates, mean±SE). […]
Immunoblotting: Immunoblotting was performed as described previously. […] The clear supernatants were transferred to new tubes and quantified using the Bradford reagent with BSA as standard (BioRad, Hercules. CA). […] For detection after immunoblotting, the SuperSignal™ West Pico PLUS substrate (ThermoFisher, Waltham, MA) was used to generate chemiluminescence signal, which was detected with X-Ray film (RadTech, Vassar, MI).

[2] = system: mtDNA harboring the m.3243A>G mutation; assay: Heteroplasmy by Haelll digestion of mtDNA fragment, DW7 cells; conditions: 10 μM, 144 h
Experimental: FIGS. 7A-7E: MNRR1 activation by tizoxanide enhances mtDNA biogenesis and mitophagy to shift heteroplasmy in MELAS cells. FIG. 7A: Oxygen consumption measured from MELAS cybrid cells treated with vehicle (DMSO) or tizoxanide (10 μM) for 48 h (n=4 biological replicates, error bars represent SE). FIG. 7B: Haelll restriction enzyme digestion of a PCR-amplified fragment of mtDNA harboring the m.3243A>G mutation from DW7 cells treated with vehicle (DMSO) or tizoxanide (10 μM) for 144 h. […] FIG. 7C: Genes identified using qPCR of MELAS cybrid cells stably overexpressing EV or MNRR1. FIG. 7D: MtDNA levels are shown relative to nuclear DNA (nDNA) (GAPDH) (n=5 biological replicates, error bars represent SE). FIG. 7E: Equal amounts of MELAS cybrid cell lysates, treated with vehicle (DMSO) or tizoxanide (10 μM) for 48 h, were separated on an SDS-PAGE gel and probed for PGC1a, PINK1, LC3 A/B, MNRR1, and Tubulin. FIG. 7F: Equal numbers of MELAS cells were treated as in FIG. 7E, separated on an SDS-PAGE gel, and probed for phospho-ubiquitin (S65) levels. Tubulin was probed as a loading control. In all figures, * indicates p<0.05, ** indicates p<0.005.
Restriction Enzyme Digestion: DNA was analyzed for the MELAS mutation as described previously. […]

SMILES	MNRR1 level (MNRR1)	mitochondrial biogenesis (PGC1α, MTCO2, TOM20 levels) [1]	mitophagy (LCB and pSer-65 ubiquitin levels) [1]	increase in proportion of WT mtDNA [2]
CC(=O)Oc1ccccc1C(=O)Nc1ncc([N+](=O)[O-])s1 [nitazoxanide, Nitazoxanide]	increase of MNRR1			
O=C(Nc1ncc([N+](=O)[O-])s1)c1ccccc1O [tizoxanide, Tizoxanide]		enhances	enhances	about 14%
